Reference: ChEMBL document CHEMBL4270552, “4-(Phenoxy) and 4-(benzyloxy)benzamides as potent and selective inhibitors of mono-ADP-ribosyltransferase PARP10/ARTD10” (Eur J Med Chem, 2018)

Columns and labels:
[1] = target: T1, Protein mono-ADP-ribosyltransferase PARP10 (Homo sapiens, UniProt Q53GL7); assay: Inhibition of C-terminal His-tagged human ARTD10 (809 to 1017 residues) expressed in Escherichia coli Rosetta2 (DE3) using SRPK2 as substrate after 13 hrs in presence of NAD+
T1 sequence (Q53GL7 whole entry): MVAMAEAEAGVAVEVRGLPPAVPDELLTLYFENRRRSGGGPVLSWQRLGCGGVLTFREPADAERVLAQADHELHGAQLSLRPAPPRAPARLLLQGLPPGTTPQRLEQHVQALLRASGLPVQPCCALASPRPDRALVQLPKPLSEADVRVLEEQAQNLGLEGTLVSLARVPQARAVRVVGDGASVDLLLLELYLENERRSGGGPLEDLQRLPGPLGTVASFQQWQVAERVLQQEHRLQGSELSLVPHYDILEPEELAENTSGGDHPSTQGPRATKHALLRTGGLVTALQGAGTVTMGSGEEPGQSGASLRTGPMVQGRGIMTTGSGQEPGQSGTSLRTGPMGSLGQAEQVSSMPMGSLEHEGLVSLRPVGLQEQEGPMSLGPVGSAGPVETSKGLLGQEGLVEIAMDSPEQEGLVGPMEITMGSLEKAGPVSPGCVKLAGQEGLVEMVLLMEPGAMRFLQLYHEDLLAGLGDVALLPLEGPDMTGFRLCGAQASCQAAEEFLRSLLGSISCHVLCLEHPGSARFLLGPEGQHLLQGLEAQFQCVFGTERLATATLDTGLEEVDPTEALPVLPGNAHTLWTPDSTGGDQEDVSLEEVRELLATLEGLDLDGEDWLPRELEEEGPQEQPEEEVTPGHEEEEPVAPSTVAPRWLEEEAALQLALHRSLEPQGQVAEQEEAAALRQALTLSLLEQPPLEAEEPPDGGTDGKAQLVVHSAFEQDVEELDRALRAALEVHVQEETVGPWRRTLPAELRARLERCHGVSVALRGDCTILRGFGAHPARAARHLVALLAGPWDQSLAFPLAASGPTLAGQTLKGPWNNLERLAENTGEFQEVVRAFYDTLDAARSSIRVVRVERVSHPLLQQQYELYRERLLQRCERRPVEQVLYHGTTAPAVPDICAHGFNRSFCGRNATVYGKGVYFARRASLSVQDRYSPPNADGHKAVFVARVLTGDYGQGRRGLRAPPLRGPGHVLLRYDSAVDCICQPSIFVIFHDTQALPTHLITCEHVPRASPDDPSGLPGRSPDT

[2] = target: Protein mono-ADP-ribosyltransferase PARP9 (Homo sapiens) (UniProt Q8IXQ6)
Description: Stabilization of human ARTD9 expressed in Escherichia coli assessed as change in melting temperature at 100 uM by SYPRO Orange-dye based differential scanning fluorimetric method

[3] = target: Protein mono-ADP-ribosyltransferase PARP4 (Homo sapiens, UniProt Q9UKK3); assay: Inhibition of N-terminal His-tagged human ARTD4 (250 to 565 residues) expressed in Escherichia coli Rosetta2 (DE3) using TCEP as substrate after 2.5 hrs in presence of NAD+
[4] = target: T2, Protein mono-ADP-ribosyltransferase PARP10 (Homo sapiens) (UniProt Q53GL7)
T2 sequence (whole entry): T1 sequence (Q53GL7 whole entry)
Description: Stabilization of C-terminal His-tagged human ARTD10 (809 to 1017 residues) expressed in Escherichia coli Rosetta2 (DE3) assessed as change in melting temperature at 100 uM by SYPRO Orange-dye based differential scanning fluorimetric method

[5] = target: T3, Protein mono-ADP-ribosyltransferase PARP12 (Homo sapiens, UniProt Q9H0J9); assay: Inhibition of N-terminal His-tagged thioredoxin-fused human ARTD12 (469 to 701 residues) expressed in Escherichia coli Rosetta2 (DE3) after 20 hrs in presence of NAD+
T3 sequence (Q9H0J9 whole entry): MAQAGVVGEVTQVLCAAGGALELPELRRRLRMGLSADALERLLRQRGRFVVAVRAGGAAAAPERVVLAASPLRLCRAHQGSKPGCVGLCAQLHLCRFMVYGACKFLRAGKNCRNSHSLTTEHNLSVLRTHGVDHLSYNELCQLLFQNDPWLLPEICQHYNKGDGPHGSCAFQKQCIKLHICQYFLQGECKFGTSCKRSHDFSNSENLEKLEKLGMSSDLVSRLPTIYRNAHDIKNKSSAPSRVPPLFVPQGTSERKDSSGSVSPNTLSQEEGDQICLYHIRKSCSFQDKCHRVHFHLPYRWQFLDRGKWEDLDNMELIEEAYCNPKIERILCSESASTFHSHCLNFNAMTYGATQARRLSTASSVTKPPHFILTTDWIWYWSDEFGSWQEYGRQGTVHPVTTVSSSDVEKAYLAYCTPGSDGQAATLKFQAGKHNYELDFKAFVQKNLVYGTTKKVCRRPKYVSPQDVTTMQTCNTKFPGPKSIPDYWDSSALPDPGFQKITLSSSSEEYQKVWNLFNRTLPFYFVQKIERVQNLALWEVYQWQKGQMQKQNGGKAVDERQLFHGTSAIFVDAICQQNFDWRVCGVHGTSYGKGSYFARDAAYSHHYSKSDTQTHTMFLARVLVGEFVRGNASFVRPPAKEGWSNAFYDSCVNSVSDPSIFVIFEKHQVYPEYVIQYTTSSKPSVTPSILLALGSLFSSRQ

[6] = target: Zinc finger CCCH-type antiviral protein 1 (Homo sapiens) (UniProt Q7Z2W4)
Sequence of Zinc finger CCCH-type antiviral protein 1 (Homo sapiens) (Q7Z2W4 whole entry): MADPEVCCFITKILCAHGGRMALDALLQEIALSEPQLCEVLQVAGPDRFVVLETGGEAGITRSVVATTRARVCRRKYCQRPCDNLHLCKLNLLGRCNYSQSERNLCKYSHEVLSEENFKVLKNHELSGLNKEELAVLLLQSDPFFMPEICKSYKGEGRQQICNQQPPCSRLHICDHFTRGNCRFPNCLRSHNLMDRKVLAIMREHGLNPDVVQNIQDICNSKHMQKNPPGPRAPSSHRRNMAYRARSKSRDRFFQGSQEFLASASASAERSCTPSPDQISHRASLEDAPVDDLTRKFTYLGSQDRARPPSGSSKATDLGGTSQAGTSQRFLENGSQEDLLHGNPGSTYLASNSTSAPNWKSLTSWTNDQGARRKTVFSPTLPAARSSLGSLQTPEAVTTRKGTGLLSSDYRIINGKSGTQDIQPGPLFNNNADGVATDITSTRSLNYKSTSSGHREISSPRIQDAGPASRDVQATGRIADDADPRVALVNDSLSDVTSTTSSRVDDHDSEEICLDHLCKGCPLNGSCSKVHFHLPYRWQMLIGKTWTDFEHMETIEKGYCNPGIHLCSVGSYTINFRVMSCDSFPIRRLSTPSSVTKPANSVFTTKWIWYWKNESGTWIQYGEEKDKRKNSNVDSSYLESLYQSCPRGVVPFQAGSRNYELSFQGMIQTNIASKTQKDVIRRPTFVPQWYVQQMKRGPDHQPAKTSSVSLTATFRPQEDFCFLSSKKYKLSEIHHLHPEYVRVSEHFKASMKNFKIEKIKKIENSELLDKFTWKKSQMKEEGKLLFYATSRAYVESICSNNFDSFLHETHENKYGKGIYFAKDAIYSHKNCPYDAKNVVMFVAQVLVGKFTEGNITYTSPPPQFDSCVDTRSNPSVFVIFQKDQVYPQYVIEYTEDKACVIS
Description: Stabilization of human ARTD13 expressed in Escherichia coli assessed as change in melting temperature at 100 uM by SYPRO Orange-dye based differential scanning fluorimetric method

Sequence of Protein mono-ADP-ribosyltransferase PARP4 (Q9UKK3 whole entry, the tested form may be a part): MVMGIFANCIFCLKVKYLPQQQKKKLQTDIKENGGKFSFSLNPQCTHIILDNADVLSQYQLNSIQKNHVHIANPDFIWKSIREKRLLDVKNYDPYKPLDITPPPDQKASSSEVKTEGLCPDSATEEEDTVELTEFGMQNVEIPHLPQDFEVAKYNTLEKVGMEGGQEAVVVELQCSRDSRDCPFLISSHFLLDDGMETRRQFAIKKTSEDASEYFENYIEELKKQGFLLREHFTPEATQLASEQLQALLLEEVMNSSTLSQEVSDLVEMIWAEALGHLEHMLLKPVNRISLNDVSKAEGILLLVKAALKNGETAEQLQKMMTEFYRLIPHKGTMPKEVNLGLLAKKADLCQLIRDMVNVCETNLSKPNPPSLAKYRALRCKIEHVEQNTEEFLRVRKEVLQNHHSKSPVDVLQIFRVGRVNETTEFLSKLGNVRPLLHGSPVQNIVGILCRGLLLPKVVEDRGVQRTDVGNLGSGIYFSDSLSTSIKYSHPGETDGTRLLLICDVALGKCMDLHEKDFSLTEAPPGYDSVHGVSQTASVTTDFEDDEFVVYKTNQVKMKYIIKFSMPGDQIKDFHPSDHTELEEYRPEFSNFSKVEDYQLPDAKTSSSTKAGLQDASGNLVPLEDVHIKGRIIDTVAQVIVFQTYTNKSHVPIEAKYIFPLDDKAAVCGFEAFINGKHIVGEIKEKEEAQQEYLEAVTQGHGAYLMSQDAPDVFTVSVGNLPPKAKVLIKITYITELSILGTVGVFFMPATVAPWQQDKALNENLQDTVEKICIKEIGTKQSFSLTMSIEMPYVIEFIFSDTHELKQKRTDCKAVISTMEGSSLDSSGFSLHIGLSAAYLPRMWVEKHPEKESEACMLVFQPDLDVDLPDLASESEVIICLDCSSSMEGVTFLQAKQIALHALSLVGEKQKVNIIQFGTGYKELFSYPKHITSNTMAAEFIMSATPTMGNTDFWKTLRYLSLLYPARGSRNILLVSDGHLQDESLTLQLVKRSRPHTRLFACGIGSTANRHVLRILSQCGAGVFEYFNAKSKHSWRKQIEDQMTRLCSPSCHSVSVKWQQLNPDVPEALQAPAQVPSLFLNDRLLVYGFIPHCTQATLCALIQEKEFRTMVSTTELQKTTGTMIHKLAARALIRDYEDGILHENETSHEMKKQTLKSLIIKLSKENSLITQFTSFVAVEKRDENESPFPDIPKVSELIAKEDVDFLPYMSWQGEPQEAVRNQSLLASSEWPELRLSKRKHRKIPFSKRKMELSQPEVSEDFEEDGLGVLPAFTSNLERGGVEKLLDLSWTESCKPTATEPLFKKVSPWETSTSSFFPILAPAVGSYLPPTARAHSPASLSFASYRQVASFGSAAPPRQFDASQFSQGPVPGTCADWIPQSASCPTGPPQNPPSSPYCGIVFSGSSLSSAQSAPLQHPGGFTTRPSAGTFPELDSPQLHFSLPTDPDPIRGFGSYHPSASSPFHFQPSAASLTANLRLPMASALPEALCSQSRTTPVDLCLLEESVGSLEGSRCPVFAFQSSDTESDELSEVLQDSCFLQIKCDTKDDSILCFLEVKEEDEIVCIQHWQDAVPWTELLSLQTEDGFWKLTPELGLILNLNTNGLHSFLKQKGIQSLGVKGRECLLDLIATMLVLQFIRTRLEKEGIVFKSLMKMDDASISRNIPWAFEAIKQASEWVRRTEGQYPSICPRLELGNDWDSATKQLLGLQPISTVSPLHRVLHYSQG

| IC50 ([1]; read-out: IC50) [nM] | IC50 ([1]; read-out: pIC50 (converted)) [nM] | Structure (SMILES) | other results |
| --- | --- | --- | --- |
| 1400 | 1450 | NC(=O)c1ccc(OCc2cccc3ccccc23)cc1 | – |
| 3300 | 3310 | NC(=O)c1ccc(OCc2cccc(F)c2)cc1 | – |
| 7300 | 7240 | NC(=O)c1ccc(OC(=O)c2ccccc2)cc1 | – |
| 720 | 724 | NC(=O)c1ccc(OC2CCC2)cc1 | – |
| 1700 | 1700 | NC(=O)c1ccc(Oc2ccccc2F)cc1 | – |
| 4500 | 4570 | Cc1cc(C)cc(COc2ccc(C(N)=O)cc2)c1 | – |
| 1100 | 1150 | NC(=O)c1ccc(Oc2ccccc2)cc1 | – |
| 1900 | 1950 | NC(=O)c1ccc(OCCOc2ccccc2)cc1 | – |
| – | – | NC(=O)c1ccc(Oc2ccc(C(N)=O)cc2)cc1 | ΔTm [2]: 0.72 °C; IC50 [3]: 23000 nM; ΔTm [4]: 3.8 °C; IC50 [5]: > 10000 nM; ΔTm [6]: 0.4 °C |
| 2000 | – | NC(=O)c1ccc(COc2ccc(C(N)=O)cc2)cc1 | – |
| 9300 | 9330 | Cc1ccc(COc2ccc(C(N)=O)cc2)cc1 | – |
| 3500 | 3390 | CCOc1ccc(C(N)=O)cc1 | – |
| 1300 | 1260 | NC(=O)c1ccc(Oc2ccc(N)cc2)cc1 | – |
| 7900 | 7940 | NC(=O)c1ccc(OCc2ccc(F)cc2)cc1 | – |
| 1800 | 1740 | NC(=O)c1ccc(Oc2ccc(O)cc2)cc1 | – |
| 3800 | 3800 | NC(=O)c1ccc(OCc2ccccc2Br)cc1 | – |
| 1300 | 1260 | CC(C)Oc1ccc(C(N)=O)cc1 | – |
| 1400 | 1380 | COc1ccc(Oc2ccc(C(N)=O)cc2)cc1 | – |
| 1350 | 1350 | NC(=O)c1ccc(OCc2ccccn2)cc1 | – |
| 1400 | 1350 | NC(=O)c1ccc(OCc2ccccc2)cc1 | – |
